Measured values reported in the Kinase Knowledgebase extract (Sharma et al. 2016).
Values joined by “and” are separate entries in the source; they are usually repeats but may differ in a detail not shown here. Equal values may be shown once.

Key:
[1] = target: EGFR (Human), P00533 [Inhibition of EGFR Dependent Proliferation of HCC827(.Delta.746-750) cells]; assay: Cell-Based Assay
[2] = target: EGFR (human), P00533 [WT]; details: a431
[3] = target: EGFR (Human), P00533 [T790M/L858R]; assay: Cell-Based Assay; details: h1975
[4] = target: EGFR (human), P00533 [WT]; assay: Cell-Based Assay; details: a431
[5] = target: EGFR (Human), P00533 [Assessment of Phosphorylation of EGFR(.Delta.746-750) in HCC827 Cells]; assay: Cell-Based Assay
[6] = target: EGFR (Human), P00533 [T790M/L858R]; assay: Cell-Based Assay; details: h1975; remark: listed apart in the source

Chain of EGFR (human), P00533 [WT] (P00533 whole entry, looked up): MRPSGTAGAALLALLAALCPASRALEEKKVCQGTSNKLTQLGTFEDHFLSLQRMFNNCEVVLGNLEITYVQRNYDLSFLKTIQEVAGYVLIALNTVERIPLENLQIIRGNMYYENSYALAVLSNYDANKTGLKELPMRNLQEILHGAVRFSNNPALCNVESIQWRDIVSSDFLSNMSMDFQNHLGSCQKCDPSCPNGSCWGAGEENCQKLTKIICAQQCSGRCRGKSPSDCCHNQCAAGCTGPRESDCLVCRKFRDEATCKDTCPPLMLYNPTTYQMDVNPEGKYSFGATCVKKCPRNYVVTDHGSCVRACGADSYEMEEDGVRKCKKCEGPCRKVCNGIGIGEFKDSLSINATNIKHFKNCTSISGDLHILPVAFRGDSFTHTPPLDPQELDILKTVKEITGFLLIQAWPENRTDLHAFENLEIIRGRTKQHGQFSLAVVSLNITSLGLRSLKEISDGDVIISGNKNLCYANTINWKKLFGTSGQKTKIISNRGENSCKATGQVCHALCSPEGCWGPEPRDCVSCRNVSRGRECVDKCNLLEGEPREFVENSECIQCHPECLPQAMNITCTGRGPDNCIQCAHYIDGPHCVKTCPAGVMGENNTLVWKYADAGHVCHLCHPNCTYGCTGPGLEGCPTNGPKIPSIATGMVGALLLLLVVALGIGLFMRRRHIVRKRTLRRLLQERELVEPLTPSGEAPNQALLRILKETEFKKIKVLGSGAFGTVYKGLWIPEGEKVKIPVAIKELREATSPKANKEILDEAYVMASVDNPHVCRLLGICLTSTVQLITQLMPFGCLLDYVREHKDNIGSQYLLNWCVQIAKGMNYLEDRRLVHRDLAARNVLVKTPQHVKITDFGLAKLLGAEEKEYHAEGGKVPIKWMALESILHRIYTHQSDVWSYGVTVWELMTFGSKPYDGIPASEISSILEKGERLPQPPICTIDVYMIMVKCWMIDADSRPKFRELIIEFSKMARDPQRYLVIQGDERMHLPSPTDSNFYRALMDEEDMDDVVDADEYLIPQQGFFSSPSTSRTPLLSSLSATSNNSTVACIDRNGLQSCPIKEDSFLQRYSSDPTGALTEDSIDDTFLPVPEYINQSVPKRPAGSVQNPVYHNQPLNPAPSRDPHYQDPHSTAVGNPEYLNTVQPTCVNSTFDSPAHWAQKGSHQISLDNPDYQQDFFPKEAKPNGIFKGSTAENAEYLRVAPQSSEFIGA
Chain of EGFR (Human), P00533 [Inhibition of EGFR Dependent Proliferation of HCC827(.Delta.746-750) cells] (P00533 whole entry, looked up, stated change not applied): as the sequence (P00533 whole entry, looked up) above
Chain of EGFR (Human), P00533 [Assessment of Phosphorylation of EGFR(.Delta.746-750) in HCC827 Cells] (P00533 whole entry, looked up, stated change not applied): as the sequence (P00533 whole entry, looked up) above
Chain of EGFR (Human), P00533 [T790M/L858R] (P00533 whole entry T790M/L858R, looked up): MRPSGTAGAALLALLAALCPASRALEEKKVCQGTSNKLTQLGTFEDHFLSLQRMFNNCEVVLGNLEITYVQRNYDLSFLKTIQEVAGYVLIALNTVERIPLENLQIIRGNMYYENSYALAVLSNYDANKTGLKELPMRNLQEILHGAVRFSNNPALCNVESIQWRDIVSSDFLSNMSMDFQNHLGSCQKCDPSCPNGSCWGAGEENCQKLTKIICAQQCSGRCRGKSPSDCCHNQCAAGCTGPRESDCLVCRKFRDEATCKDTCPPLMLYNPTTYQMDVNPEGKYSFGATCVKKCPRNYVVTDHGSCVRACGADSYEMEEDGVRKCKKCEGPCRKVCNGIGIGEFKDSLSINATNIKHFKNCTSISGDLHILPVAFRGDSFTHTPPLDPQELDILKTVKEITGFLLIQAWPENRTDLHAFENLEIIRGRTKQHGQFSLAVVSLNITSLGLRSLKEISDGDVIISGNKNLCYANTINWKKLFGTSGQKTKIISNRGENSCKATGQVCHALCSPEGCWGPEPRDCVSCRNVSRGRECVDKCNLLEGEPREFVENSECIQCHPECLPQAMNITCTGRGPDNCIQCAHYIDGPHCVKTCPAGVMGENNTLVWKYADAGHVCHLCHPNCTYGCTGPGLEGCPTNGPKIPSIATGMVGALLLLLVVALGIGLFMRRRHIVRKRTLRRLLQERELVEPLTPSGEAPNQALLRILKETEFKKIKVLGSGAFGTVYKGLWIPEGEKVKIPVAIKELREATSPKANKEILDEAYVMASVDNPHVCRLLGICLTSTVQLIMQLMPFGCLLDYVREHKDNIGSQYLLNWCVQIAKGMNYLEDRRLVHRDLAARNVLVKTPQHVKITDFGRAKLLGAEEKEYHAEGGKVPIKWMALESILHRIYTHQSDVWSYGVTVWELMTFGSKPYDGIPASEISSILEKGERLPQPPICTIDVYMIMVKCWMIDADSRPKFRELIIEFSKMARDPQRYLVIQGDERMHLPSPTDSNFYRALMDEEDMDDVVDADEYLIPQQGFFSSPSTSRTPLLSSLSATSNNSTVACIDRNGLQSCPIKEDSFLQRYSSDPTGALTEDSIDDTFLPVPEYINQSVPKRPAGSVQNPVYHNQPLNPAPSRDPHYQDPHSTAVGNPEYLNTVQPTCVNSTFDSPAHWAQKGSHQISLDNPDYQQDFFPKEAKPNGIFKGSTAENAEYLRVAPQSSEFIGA

Row | Structure (SMILES) | IC50 [1] | IC50 [2] [µM] | IC50 [3] [µM] | IC50 [4] [µM] | IC50 [5] [µM] | IC50 [6] [µM]
1 | C=CC(=O)Nc1cccc(-n2c(=O)cc(C)c3cnc(Nc4ccc(N(C)CCN5CCCC5=O)cc4OC)nc32)c1 | 0.401 µM | 4.24 | 0.108 | – | – | –
2 | C=CC(=O)Nc1cccc(-n2c(=O)c(OC)cc3cnc(Nc4ccc(N5CCN(C)CC5)cc4OC)nc32)c1 | 0.061 µM | 0.201 | 0.272 | – | – | –
3 | C=CC(=O)Nc1cccc(-n2c(=O)cc(C)c3cnc(Nc4ccc(OCCN(C)C)cc4OC)nc32)c1 | 0.028 µM | 2.4 | 0.004 | 0.511 | 0.017 | 0.004
4 | C=CC(=O)Nc1cccc(-n2c(=O)ccc3cnc(Nc4ccc(N5CCN(C)CC5)cc4OC)nc32)c1 | – | – | – | – | 0.0034 | –
5 | C=CC(=O)Nc1cccc(-n2c(=O)ccc3cnc(Nc4ccc(NC5CN(CCF)C5)cc4OC)nc32)c1 | – | – | – | – | 0.005 | –
6 | C=CC(=O)Nc1cccc(-n2c(=O)cc(C)c3cnc(Nc4ccc(N(C)CCN(C)C)cc4OC)nc32)c1 | 0.022 µM | 1.4 | 0.008 | 0.689 | 0.024 | 0.0078
7 | C=CC(=O)Nc1cccc(-n2c(=O)cc(C)c3cnc(Nc4cn([C@H]5CCN(C)C5)nc4C)nc32)c1 | 0.049 µM | 1.28 | 0.018 | – | – | –
8 | C=CC(=O)Nc1cccc(-n2c(=O)cc(C)c3cnc(Nc4ccc(C5CCNCC5)cc4)nc32)c1 | – | – | 0.18 | – | – | –
9 | C=CC(=O)Nc1cccc(-n2c(=O)cc(C)c3cnc(Nc4ccc(OCCCN(C)C)cc4)nc32)c1 | 0.159 µM | 1.55 | 0.027 | – | – | –
10 | C=CC(=O)Nc1cccc(-n2c(=O)cc(C)c3cnc(Nc4ccc(N(C)CCN(C)C)cc4)nc32)c1 | 0.023 µM | – | 0.008 | – | – | –
11 | C=CC(=O)Nc1cccc(-n2c(=O)cc(C)c3cnc(Nc4cnn(CCN(C)C)c4)nc32)c1 | 0.305 µM | – | 0.162 | – | – | –
12 | C=CC(=O)N1CC[C@H](Cn2c(=O)cc(C)c3cnc(Nc4ccc(N5CCN(C)CC5)cc4OC)nc32)C1 | – | – | 0.175 | – | – | –
13 | C=CC(=O)Nc1cccc(-n2c(=O)cc(C)c3cnc(Nc4cc(C)nn4C)nc32)c1 | – | – | 0.762 | – | – | –
14 | C=CC(=O)Nc1cccc(-n2c(=O)cc(C)c3cnc(Nc4ccnn4CC)nc32)c1 | – | – | 0.911 | – | – | –
15 | C=CC(=O)Nc1cccc(-n2c(=O)cc(C)c3cnc(Nc4ccc(N5CCN(C)CC5)cc4OC)nc32)c1 | – | – | – | – | 0.008 | –
16 | C=CC(=O)Nc1cccc(-n2c(=O)cc(C)c3cnc(Nc4cn(C)nc4C)nc32)c1 | 0.022 µM | 1.25 | 0.016 | – | – | –
17 | C=CC(=O)Nc1cccc(-n2c(=O)cc(C)c3cnc(Nc4ccc(OCCOC)cc4)nc32)c1 | 0.249 µM | 2.41 | 0.042 | – | – | –
18 | C=CC(=O)Nc1cccc(-n2c(=O)cc(C)c3cnc(Nc4ccc(N(C)CCN(C)C)cc4C)nc32)c1 | 0.124 µM | 1.15 | 0.009 | – | – | –
19 | C=CC(=O)Nc1cccc(-n2c(=O)c(OC)c(C)c3cnc(Nc4ccc(N5CCN(C)CC5)cc4OC)nc32)c1 | 0.041 µM | 1.39 | 0.01 | – | – | –
20 | C=CC(=O)Nc1cccc(-n2c(=O)cc(C)c3cnc(Nc4ccc(OCCN(C)C)cc4Cl)nc32)c1 | 0.046 µM | 0.832 | 0.0047 | – | – | –
21 | C=CC(=O)Nc1cccc(-n2c(=O)cc(C)c3cnc(Nc4ccc(N5CCN(C)CC5)c(F)c4)nc32)c1 | 0.086 µM | 1.26 | 0.028 | – | – | –
22 | C=CC(=O)Nc1cccc(-n2c(=O)cc(C)c3cnc(Nc4ccc(OCCN(C)C)cc4F)nc32)c1 | 0.076 µM | 1.33 | 0.051 | – | – | –
23 | C=CC(=O)Nc1cccc(-n2c(=O)cc(C)c3cnc(Nc4ccc(N(C)CCN5CCCC5)cc4OC)nc32)c1 | 0.272 µM | 1.41 | 0.128 | – | – | –
24 | C=CC(=O)Nc1cccc(-n2c(=O)cc(C)c3cnc(Nc4cccc(F)c4)nc32)c1 | – | – | 0.714 | – | – | –
25 | C=CC(=O)Nc1cccc(-n2c(=O)cc(C)c3cnc(Nc4ccc(O[C@H]5CCN(C)C5)cc4OC)nc32)c1 | – | 2.11 | 0.0103 | – | – | –
26 | C=CC(=O)Nc1cccc(-n2c(=O)cc(C)c3cnc(Nc4cnn(C)c4)nc32)c1 | 0.077 µM | 16.6 | 0.062 | – | – | –
27 | C/C=C/C(=O)Nc1cccc(-n2c(=O)cc(C)c3cnc(Nc4ccc(OCCN(C)C)cc4OC)nc32)c1 | 1.48 µM | 24.8 | 0.87 | – | – | –

Next, values leading:

Row | IC50 [1] | IC50 [2] [µM] | IC50 [3] [µM] | IC50 [4] [µM] | IC50 [5] [µM] | IC50 [6] [µM] | Structure (SMILES)
28 | 0.083 µM | 0.884 | 0.024 | – | – | – | C=CC(=O)Nc1cccc(-n2c(=O)cc(C)c3cnc(Nc4ccc(N(C)CCN(C)C)cc4OC(F)F)nc32)c1
29 | 0.236 µM | 4.27 | 0.009 | – | – | – | C=CC(=O)Nc1cccc(-n2c(=O)cc(C)c3cnc(Nc4ccc(N5CCN(C(C)=O)CC5)cc4Cl)nc32)c1
30 | 0.401 µM | 6.67 | 0.176 | – | – | – | C=CC(=O)Nc1cccc(-n2c(=O)cc(C)c3cnc(Nc4ccc(N5CCC(C(C)(C)O)CC5)cc4)nc32)c1
31 | 0.036 µM | 0.653 | 0.0058 | – | – | – | C=CC(=O)Nc1cccc(-n2c(=O)cc(C)c3cnc(Nc4ccc(N5CCN(C)CC5)c(C)c4)nc32)c1
32 | 0.03 µM | 2.87 | 0.016 | – | – | – | C=CC(=O)Nc1cccc(-n2c(=O)cc(C)c3cnc(Nc4cn(C)nc4Cl)nc32)c1
33 | 0.018 µM | 0.25 | 0.004 | – | – | – | C=CC(=O)Nc1cccc(-n2c(=O)c(Cc3ccccc3)cc3cnc(Nc4ccc(N5CCN(C)CC5)cc4OC)nc32)c1
34 | 0.021 µM | 3.1 | 0.013 | – | – | – | C=CC(=O)Nc1cccc(-n2c(=O)cc(C)c3cnc(Nc4ccc(N(C)CCN(C)C)cc4Cl)nc32)c1
35 | – | – | 0.053 | – | – | – | C=CC(=O)Nc1cccc(-n2c(=O)cc(C)c3cnc(Nc4cn(C)nc4C(F)(F)F)nc32)c1
36 | 0.483 µM | 1.69 | 0.035 | – | – | – | C=CC(=O)Nc1cccc(-n2c(=O)cc(C)c3cnc(Nc4ccc(N(C)CCO)cc4OC)nc32)c1
37 | 0.002 µM | – | 0.007 | – | – | – | C=CC(=O)Nc1cccc(-n2c(=O)ccc3cnc(Nc4cn(C)nc4C)nc32)c1
38 | 1.05 µM | 1.82 | 0.31 | – | – | – | C=CC(=O)Nc1cccc(-n2c(=O)cc(C)c3cnc(Nc4cn(C5CCN(C)CC5)nc4C)nc32)c1.C=CC(=O)Nc1cccc(-n2c(=O)cc(C)c3cnc(Nc4cnn(C5CCN(C)CC5)c4C)nc32)c1
39 | 0.017 µM and 0.01 µM | 1.03 | 0.009 | – | – | – | C=CC(=O)Nc1cccc(-n2c(=O)cc(C)c3cnc(Nc4ccc(OCCN(C)C)cc4)nc32)c1
40 | 1.37 µM | 18 | 0.336 | – | – | – | C/C=C/C(=O)Nc1cccc(-n2c(=O)cc(C)c3cnc(Nc4ccc(N(C)CCN(C)C)cc4OC)nc32)c1
41 | – | – | 0.101 | – | – | – | C=CC(=O)Nc1cccc(-n2c(=O)cc(C)c3cnc(Nc4cnn(C(C)C)c4)nc32)c1
42 | 0.027 µM | – | 0.011 | – | – | – | C=CC(=O)Nc1cccc(-n2c(=O)cc(C)c3cnc(Nc4ccc(C5CCN(C)CC5)cc4)nc32)c1
